In patent publication US7906488B2, “Sphingolipids in treatment and prevention of steatosis and of steatosis or of hepatotoxicity and its sequelae” (Nederlandse Organisatie Voor …, priority 2004, dated 2011):

Test system: APOE*3Leiden mice
Assay: In vivo clearance of VLDL-like TG-rich emulsion particles
Conditions: 1% PS diet
Experimental: Plasma parameters: Tail blood samples were collected in EDTA-coated cups, or in paraoxon-coated capillaries to prevent lipolysis as described in Zambon et al. 1993 (Zambon et al. 1993. J. Lipid Res. 34:1021-1028). Plasma lipid parameters were determined using commercial kits for total cholesterol (C) Chol R1 from Roche Diagnostics, Mannheim, Germany), non-esterified free fatty acids (FFA) (NEFA-C; Wako chemicals, Neuss, Germany), Total triglycerides (TG) (Triglyceride GPO-Trinder; Sigma, St. Louis, Mo.), β-hydroxybutyrate (β-HB; Sigma) and ALAT (Reflotron GPT; Roche). Serum amyloid A (SAA) was measured by ELISA (Biosource, Nivelles, Belgium) and fibrinogen by sandwich ELISA, as described in Koopman et al., 2005 (Koopman et al. 2005. Fibrinol Proteol 11:19). For lipoproteins fractionation, groupwise-pooled plasma was size-fractionated by fast protein liquid chromatography (FPLC) on a Superose 6 column (Äkta; Amersham Pharmacia Biotech, Uppsala, Sweden). Fractions were assayed for total C and TG as described. Hepatic VLDL-TG production: The rate of hepatic VLDL-TG production, de novo apoB secretion, and VLDL composition were determined in overnight-fasted mice. Mice were anaesthetized with vetranquil/fentanyl/midazolam i.p., and injected i.v. with 0.1 ml PBS containing 100 μCi Tran^35S-label™ (ICN Biomedicals, Irvine, Calif.) to measure the de novo apoB synthesis. After 30 min, the animals received a Triton WR1339 injection (Tyloxapol, Sigma; 500 mg/kg body weight in 100 μl saline) to prevent systemic lipolysis of newly-secreted hepatic VLDL-TG (Aalto-Setala et al. 1992. J. Clin. Invest 90:1889-1900.27) Blood samples were drawn at 0, 15, 30, 60, and 90 min after Triton WR1339 injection and plasma TG concentrations were determined. After 90 min, the animals were sacrificed and blood was collected by retro-orbital bleeding for isolation of VLDL. VLDL composition: VLDL particles (d<1.019) were separated from other lipoproteins in plasma by density gradient ultra-centrifugation, as described in Jong et al., 1996 (Jong et al. 1996. Arterioscler. Thromb. Vasc. Biol. 16:934-940). Protein content of the VLDL fraction was determined by Lowry's assay (Lowry et al., 1951. J. Biol. Chem. 193:265-275), and TG and total C were determined as described above. Phospholipids and free cholesterol were determined using standard commercial kits (Wako Chemicals, Neuss, Germany). The ^35S-apoB content of VLDL was measured after selective precipitation of apoB with isopropanol as described elsewhere (Li et al. 1996 J. Lipid Res. 37:210-220; Pietzsch et al. 1995. Biochim. Biophys. Acta 1254:77-88). In vivo clearance of VLDL-like TG-rich particles: To determine whether 1% PS accelerates the clearance of TG-rich lipoproteins from plasma, we used radiolabeled emulsion particles as a tool. VLDL-like emulsion particles containing 200 μCi of [^3H]triolein and 20 μCi of [^14C]cholesteryl oleate were prepared and characterized as described in Rensen et al. 1997 (Rensen et al., 1997. J. Lipid Res. 38:1070-1084). Fed mice were anaesthetized as described above and laparotomy was performed. […] After taking the last liver and blood sample, the remainder of the liver, heart, spleen, hind limb muscle, and gonadal, perirenal and intestinal white adipose tissues were harvested. Lipids were extracted overnight at 60° C. in 500 μL of Solvable™, and radioactivity was counted as described in Rensen et al., 1997 (supra). […]

SMILES: CCCCCCCCCCCCCC[C@@H](O)[C@@H](O)[C@@H](N)CO [PS, phytosphingosine]
- Uptake of [^14C]cholesteryl oleate or [^3H]TG-derived radioactivity by peripheral muscle and adipose tissues: No effects
- Plasma clearance of [^14C]cholesteryl oleate, t1/2 (5 weeks, fed mice): 39.5 ± 5.3 min
- Serum clearance of [^3H]TG, t1/2 (5 weeks, fed mice): 4.7 ± 0.3 min
- [^3H]TG uptake in the liver (at 10 min and 20 min after injection): increased significantly
- Liver uptake of [^14C]cholesteryl oleate, change vs control (at 20 min): +60%
